Assays:
CaV3.2 [1] = target: T1, CaV3.2 (Homo sapiens, UniProt O95180); assay: whole-cell patch clamp, percent inhibition of peak current at […]; assay type: cell-based
T1 construct: gene CACNA1H; human CaV3.2 channels stably expressed in HEK-293 cells

CaV3.2 [2] = target: T1, CaV3.2; assay: whole-cell patch clamp, concentration-response of peak T-current; assay type: cell-based

T1 sequence (O95180 whole entry): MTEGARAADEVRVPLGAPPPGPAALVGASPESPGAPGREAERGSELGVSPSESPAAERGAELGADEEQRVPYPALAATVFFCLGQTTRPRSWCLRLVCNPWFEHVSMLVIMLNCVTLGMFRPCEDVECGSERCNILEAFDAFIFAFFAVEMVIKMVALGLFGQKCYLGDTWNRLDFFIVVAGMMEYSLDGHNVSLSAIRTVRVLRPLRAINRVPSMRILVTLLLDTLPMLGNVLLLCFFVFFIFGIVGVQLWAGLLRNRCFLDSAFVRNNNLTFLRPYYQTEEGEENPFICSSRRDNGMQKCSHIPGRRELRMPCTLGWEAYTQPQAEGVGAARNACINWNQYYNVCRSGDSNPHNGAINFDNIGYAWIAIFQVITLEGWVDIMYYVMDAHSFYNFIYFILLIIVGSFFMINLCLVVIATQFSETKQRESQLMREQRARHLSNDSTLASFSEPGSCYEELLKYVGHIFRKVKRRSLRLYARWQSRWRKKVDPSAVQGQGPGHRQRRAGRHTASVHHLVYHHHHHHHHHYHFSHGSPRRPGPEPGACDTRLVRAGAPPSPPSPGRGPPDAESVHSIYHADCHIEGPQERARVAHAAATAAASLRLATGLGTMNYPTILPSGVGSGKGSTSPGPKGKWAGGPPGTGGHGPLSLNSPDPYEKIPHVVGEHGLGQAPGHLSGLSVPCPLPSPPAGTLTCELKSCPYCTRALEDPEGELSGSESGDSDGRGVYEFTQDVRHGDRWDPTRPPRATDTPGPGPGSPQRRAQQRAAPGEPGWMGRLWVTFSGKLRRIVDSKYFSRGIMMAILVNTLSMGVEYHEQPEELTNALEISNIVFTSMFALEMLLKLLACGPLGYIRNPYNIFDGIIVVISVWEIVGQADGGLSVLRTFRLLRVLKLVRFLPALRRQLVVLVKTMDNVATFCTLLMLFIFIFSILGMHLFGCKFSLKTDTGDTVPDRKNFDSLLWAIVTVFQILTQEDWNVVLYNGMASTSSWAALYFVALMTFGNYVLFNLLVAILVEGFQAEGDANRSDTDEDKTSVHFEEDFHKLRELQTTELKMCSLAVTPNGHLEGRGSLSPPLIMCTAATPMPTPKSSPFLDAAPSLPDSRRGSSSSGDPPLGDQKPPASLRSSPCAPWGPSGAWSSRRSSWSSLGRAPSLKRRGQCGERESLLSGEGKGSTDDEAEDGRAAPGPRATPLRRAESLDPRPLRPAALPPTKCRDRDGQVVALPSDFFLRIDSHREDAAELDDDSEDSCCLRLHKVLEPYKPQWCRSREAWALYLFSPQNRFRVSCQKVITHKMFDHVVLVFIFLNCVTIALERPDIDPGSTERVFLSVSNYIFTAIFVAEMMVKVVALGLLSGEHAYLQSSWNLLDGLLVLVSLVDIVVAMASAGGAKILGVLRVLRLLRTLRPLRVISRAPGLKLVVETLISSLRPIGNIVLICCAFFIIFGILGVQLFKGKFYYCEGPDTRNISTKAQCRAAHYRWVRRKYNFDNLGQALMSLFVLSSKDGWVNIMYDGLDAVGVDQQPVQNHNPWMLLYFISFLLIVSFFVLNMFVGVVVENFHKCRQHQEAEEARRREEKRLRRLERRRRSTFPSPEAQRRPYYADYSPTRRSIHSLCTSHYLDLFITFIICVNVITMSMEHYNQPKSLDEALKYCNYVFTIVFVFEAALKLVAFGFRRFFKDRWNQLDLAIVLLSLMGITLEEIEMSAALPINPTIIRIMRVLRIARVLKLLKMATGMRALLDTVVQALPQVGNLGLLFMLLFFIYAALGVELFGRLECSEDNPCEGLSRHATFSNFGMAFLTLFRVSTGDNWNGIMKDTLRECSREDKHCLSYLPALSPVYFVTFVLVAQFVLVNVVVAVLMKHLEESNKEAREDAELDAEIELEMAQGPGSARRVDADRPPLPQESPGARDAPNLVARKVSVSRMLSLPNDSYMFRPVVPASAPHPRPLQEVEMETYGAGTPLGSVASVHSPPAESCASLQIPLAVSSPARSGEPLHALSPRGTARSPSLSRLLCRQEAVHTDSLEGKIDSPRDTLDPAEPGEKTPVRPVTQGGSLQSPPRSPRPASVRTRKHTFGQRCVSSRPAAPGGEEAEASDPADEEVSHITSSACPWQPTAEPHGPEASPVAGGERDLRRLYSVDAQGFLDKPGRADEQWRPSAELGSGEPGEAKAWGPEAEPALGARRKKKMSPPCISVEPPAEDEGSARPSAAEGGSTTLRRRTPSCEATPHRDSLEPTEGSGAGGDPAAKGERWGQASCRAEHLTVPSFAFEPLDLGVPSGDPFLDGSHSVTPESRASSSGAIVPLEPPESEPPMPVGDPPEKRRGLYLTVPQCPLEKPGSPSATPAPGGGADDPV

| Compound | inhibition at 10 µM (CaV3.2 [1]) [%] | IC50 (CaV3.2 [2]) [µM] |
| --- | --- | --- |
| C[C@]12CC[C@H](O)C[C@H]1CC[C@@H]1[C@@H]2CC[C@]2(C)[C@@H](C#N)CC[C@@H]12 [3β-OH, (3β,5β,17β)-3-hydroxyandrostane-17-carbonitrile] | 48.2 ± 4.2 |  |
| C[C@]12CC[C@H](O)C[C@@H]1CC[C@@H]1[C@@H]2CC[C@]2(C)[C@@H](C#N)CC[C@@H]12 [compound 6, (3β,5α,17β)-3-Hydroxyandrostan-17-carbonitrile] |  | 3.8 |
| CO[C@H]1CC[C@H]2[C@@H](CC[C@@H]3[C@@H]2CC[C@]2(C)[C@@H](O)CC[C@@H]32)C1 [compound 6, (3β,5α,17β)-3-Methoxyestran-17-ol] |  | 2.4 |
| C[C@]12CC[C@H]3[C@@H](CC[C@H]4C[C@@H](C#N)CC[C@@H]43)[C@@H]1CC[C@@H]2O [ECN, (3β,5α,17β)-17-hydroxyestrane-3-carbonitrile] | 47.4 ± 5.2 |  |

Reference: article PMC12385050, “Novel Neuroactive Steroid Analogs and Voltage-Dependent Blockers of CaV3.2 Currents, B372 and YX23, Are Effective Anti-Nociceptives with Diminished Sedative Properties in Intact Female Mice” (Biomolecules, 2025)
